Among the data in patent publication US12528786B2, “Plasma kallikrein inhibitors” (Merck Sharp & Dohme LLC, priority 2020, dated 2026) are IC50 values, retold here.

In this test the target is T1, Human plasma kallikrein (Homo sapiens, UniProt P03952).
T1 construct: yields a heavy chain (371 amino acids) and a light chain (248 amino acids); purchased Enzyme Research Laboratories
Put plainly: Kallikrein Assay (fluorogenic substrate hydrolysis, AFC release). In kind it is biochemical. The conditions noted are these: purified Human plasma kallikrein 0.5 nM; substrate Acetyl-K—P—R-AFC 100 mM; 50 mM HEPES pH 7.4. The procedure:
The effectiveness of a compound of the present invention as an inhibitor of Kallikrein can be determined using a relevant purified serine protease, and an appropriate synthetic substrate. The rate of hydrolysis of the chromogenic or fluorogenic substrate by the relevant serine protease was measured both in the absence and presence of compounds of the present invention. Assays were conducted at room temperature or at 37° C. […] A decrease in the rate of fluorescence change in the presence of inhibitor is indicative of enzyme inhibition. Such methods are known to one skilled in the art. The results of this assay are expressed as the half-maximal inhibitory concentrations (IC50), or the inhibitory constant, Ki.
Kallikrein determinations were made in 50 mM HEPES buffer at pH 7.4 containing 150 mM NaCl, 5 mM CaCl2), and 0.1% PEG 8000 (polyethylene glycol; Fisher Scientific). Determinations were made using purified Human plasma kallikrein at a final concentration of 0.5 nM (Enzyme Research Laboratories) and the synthetic substrate, Acetyl-K—P—R-AFC (Sigma #C6608) at a concentration of […].
Activity assays were performed by diluting a stock solution of substrate at least tenfold to a final concentration ≤0.2 Km into a solution containing enzyme or enzyme equilibrated with inhibitor. Times required to achieve equilibration between enzyme and inhibitor were determined in control experiments. The reactions were performed under linear progress curve conditions and fluorescence increase measured at 405 Ex/510 Em nm. Values were converted to percent inhibition of the control reaction (after subtracting 100% Inhibition value). IC50 was determined by inflection point from a four parameter logistic curve fit. Ki was calculated using the Cheng Prusoff equation, Ki=IC50/(1+([S]/Km)).

Each structure is given as a SMILES string.

T1 sequence (P03952 391-638 limits assumed): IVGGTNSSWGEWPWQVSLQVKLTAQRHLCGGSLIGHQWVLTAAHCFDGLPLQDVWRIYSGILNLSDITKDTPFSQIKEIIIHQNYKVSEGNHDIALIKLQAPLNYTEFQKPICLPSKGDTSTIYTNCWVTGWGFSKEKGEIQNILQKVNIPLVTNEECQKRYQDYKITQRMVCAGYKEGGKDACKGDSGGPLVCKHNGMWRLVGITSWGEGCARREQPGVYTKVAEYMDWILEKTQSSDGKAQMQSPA
T1 sequence (P03952 20-390 partner limits assumed): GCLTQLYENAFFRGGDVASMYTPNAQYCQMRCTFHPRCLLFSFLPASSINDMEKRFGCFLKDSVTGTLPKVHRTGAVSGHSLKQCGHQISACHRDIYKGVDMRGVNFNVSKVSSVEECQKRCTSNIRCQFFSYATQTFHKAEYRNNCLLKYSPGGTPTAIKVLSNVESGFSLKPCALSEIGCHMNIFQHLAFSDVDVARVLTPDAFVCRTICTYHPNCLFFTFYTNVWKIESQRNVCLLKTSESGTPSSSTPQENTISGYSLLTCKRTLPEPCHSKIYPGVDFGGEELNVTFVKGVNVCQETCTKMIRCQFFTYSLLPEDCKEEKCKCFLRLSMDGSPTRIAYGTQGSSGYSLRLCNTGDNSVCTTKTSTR

In general, IC50 refers to the concentration at which inhibition is half-maximal. For the molecule `COc1cc(C(C)n2cc(C(=O)N[C@H]3C[C@@H](c4cc(Cl)ccc4C#N)C3)nn2)cnc1N1C[C@H]2C[C@H]2C1=O` (mixture of isomers) [Example 100, N-((cis)-3-(5-chloro-2-cyanophenyl)cyclobutyl)-1-((R and S)-1-(5-methoxy-6-((1R,5S)-2-oxo-3-azabicyclo[3.1.0]hexan-3-yl)pyridin-3-yl)ethyl)-1H-1,2,3-triazole-4-carboxamide], the IC50 stood at 2 nM.

Molecule `Cc1c([C@H](C)n2cc(C(=O)N[C@H]3C[C@@H](c4cc(Cl)ccc4C#N)C3)nn2)cnc(N2C[C@H]3C[C@H]3C2=O)c1O` (relative stereo) [Example 164, N-((cis)-3-(5-chloro-2-cyanophenyl)cyclobutyl)-1-((S)-1-(5-hydroxy-4-methyl-6-((1R,5S)-2-oxo-3-azabicyclo[3.1.0]hexan-3-yl)pyridin-3-yl)ethyl)-1H-12,3-triazole-4-carboxamide] returned an IC50 of 46.7 nM.

`CC(c1cnc(N2C[C@H]3C[C@H]3C2=O)nc1)n1cc(C(=O)N[C@H]2C[C@@H](c3cc(Cl)ccc3C#N)C2)cn1` (single isomer, unassigned) [Example 3, N-((cis)-3-(5-chloro-2-cyanophenyl)cyclobutyl)-1-((R or S)-1-(2-((1R,5S)-2-oxo-3-azabicyclo[3.1.0]hexan-3-yl)pyrimidin-5-yl)ethyl)-1H-pyrazole-4-carboxamide] registered an IC50 of 6.7 nM.

The molecule `CC(c1cnc(N2C[C@H]3C[C@H]3C2=O)nc1)n1cc(C(=O)N[C@H]2C[C@@H](c3cc(Cl)ccc3C#N)C2)cn1` (single isomer, unassigned) [Example 4, N-((cis)-3-(5-chloro-2-cyanophenyl)cyclobutyl)-1-((S or R)-1-(2-((1R,5S)-2-oxo-3-azabicyclo[3.1.0]hexan-3-yl)pyrimidin-5-yl)ethyl)-1H-pyrazole-4-carboxamide carboxamide] returned an IC50 of 17.5 nM.

Molecule `Cc1cc([C@H](C)n2cc(C(=O)N[C@H]3C[C@@H](c4cc(Cl)ccc4C#N)C3)cn2)cnc1N1C[C@H]2C[C@H]2C1=O` (single isomer, unassigned) [Example 5] returned an IC50 of 0.6 nM.

In turn, `Cc1cc([C@@H](C)n2cc(C(=O)N[C@H]3C[C@@H](c4cc(Cl)ccc4C#N)C3)cn2)cnc1N1C[C@H]2C[C@H]2C1=O` (single isomer, unassigned) [Example 6] yielded an IC50 of 0.7 nM. The IC50 values of the last two molecules are within 1.5-fold of each other.

`Cc1cc(N2C[C@H]3C[C@H]3C2=O)ncc1C(C)n1cc(C(=O)N[C@H]2C[C@@](C)(c3cc(Cl)ccc3C#N)C2)cn1` (single isomer, unassigned) [Example 9, N-((cis)-3-(5-chloro-2-cyanophenyl)-3-methylcyclobutyl)-1-((R or S)-1-(4-methyl-6-((1R,5S)-2-oxo-3-azabicyclo[3.1.0]hexan-3-yl)pyridin-3-yl)ethyl)-1H-pyrazole-4-carboxamide] showed an IC50 of 0.3 nM. Against the preceding molecule, the IC50 is about 2.3-fold lower.

Consider `Cc1cc(N2C[C@H]3C[C@H]3C2=O)ncc1C(C)n1cc(C(=O)N[C@H]2C[C@@](C)(c3cc(Cl)ccc3C#N)C2)cn1` (single isomer, unassigned) [Example 10, N-((cis)-3-(5-chloro-2-cyanophenyl)-3-methylcyclobutyl)-1-((S or R)-1-(4-methyl-6-((1R,5S)-2-oxo-3-azabicyclo[3.1.0]hexan-3-yl)pyridin-3-yl)ethyl)-1H-pyrazole-4-carboxamide], for which the IC50 is 3.6 nM.

Molecule `COc1cc(N2C[C@H]3C[C@H]3C2=O)ncc1[C@H](C)n1cc(C(=O)N[C@H]2C[C@@H](c3cc(Cl)ccc3C#N)C2)cn1` (single isomer, unassigned) [Example 11] registered an IC50 of 0.9 nM. Compared with the last molecule, the IC50 is about 4-fold lower.

Molecule `COc1cc(N2C[C@H]3C[C@H]3C2=O)ncc1[C@@H](C)n1cc(C(=O)N[C@H]2C[C@@H](c3cc(Cl)ccc3C#N)C2)cn1` (single isomer, unassigned) [Example 12] had an IC50 of 7.7 nM.

For the molecule `COc1cc(C(C)n2cc(C(=O)N[C@H]3C[C@@H](c4cc(Cl)ccc4C#N)C3)cn2)cnc1N1C[C@H]2C[C@H]2C1=O` (single isomer, unassigned) [Example 13, N-((cis)-3-(5-chloro-2-cyanophenyl)cyclobutyl)-1-((R or S)-1-(5-methoxy-6-((1R,5S)-2-oxo-3-azabicyclo[3.1.0]hexan-3-yl)pyridin-3-yl)ethyl)-1H-pyrazole-4-carboxamide], inhibition was half-maximal at 1 nM (IC50). Compared with the last molecule, the IC50 is about 7.7-fold lower.

`COc1cc(C(C)n2cc(C(=O)N[C@H]3C[C@@H](c4cc(Cl)ccc4C#N)C3)cn2)cnc1N1C[C@H]2C[C@H]2C1=O` (single isomer, unassigned) [Example 14, N-((cis)-3-(5-chloro-2-cyanophenyl)cyclobutyl)-1-((S or R)-1-(5-methoxy-6-((1R,5S)-2-0x0-3-azabicyclo[3.1.0]hexan-3-yl)pyridin-3-yl)ethyl)-1H-pyrazole-4-carboxamide] displayed an IC50 of 2.8 nM.

As to `Cc1nn(C(C)c2cnc(N3C[C@H]4C[C@H]4C3=O)nc2)cc1C(=O)N[C@H]1C[C@@H](c2cc(Cl)ccc2C#N)C1` (single isomer, unassigned) [Example 15, N-((cis)-3-(5-chloro-2-cyanophenyl)cyclobutyl)-3-methyl-1-((R or S)-1-(2-((1R,5S)-2-oxo-3-azabicyclo[3.1.0]hexan-3-yl)pyrimidin-5-yl)ethyl)-1H-pyrazole-4-carboxamide], inhibition was half-maximal at 2.6 nM (IC50).

The molecule `Cc1nn(C(C)c2cnc(N3C[C@H]4C[C@H]4C3=O)nc2)cc1C(=O)N[C@H]1C[C@@H](c2cc(Cl)ccc2C#N)C1` (single isomer, unassigned) [Example 16, N-((cis)-3-(5-chloro-2-cyanophenyl)cyclobutyl)-3-methyl-1-((S or R)-1-(2-((1R,5S)-2-oxo-3-azabicyclo[3.1.0]hexan-3-yl)pyrimidin-5-yl)ethyl)-1H-pyrazole-4-carboxamide] gave an IC50 of 6.7 nM.

For `CC(c1cnc(N2C[C@H]3C[C@H]3C2=O)nc1)n1cc(C(=O)N[C@H]2C[C@@H](c3cc(Cl)ccc3C#N)C2)c(C#N)n1` (single isomer, unassigned) [Example 17, N-((cis)-3-(5-chloro-2-cyanophenyl)cyclobutyl)-3-cyano-1-((R or S)-1-(2-((1R,5S)-2-oxo-3-azabicyclo[3.1.0]hexan-3-yl)pyrimidin-5-yl)ethyl)-1H-pyrazole-4-carboxamide], inhibition was half-maximal at 5.5 nM (IC50).

In turn, `CC(c1cnc(N2C[C@H]3C[C@H]3C2=O)nc1)n1cc(C(=O)N[C@H]2C[C@@H](c3cc(Cl)ccc3C#N)C2)c(C#N)n1` (single isomer, unassigned) [Example 18, N-((cis)-3-(5-chloro-2-cyanophenyl)cyclobutyl)-3-cyano-1-((S or R)-1-(2-((1R,5S)-2-oxo-3-azabicyclo[3.1.0]hexan-3-yl)pyrimidin-5-yl)ethyl)-1H-pyrazole-4-carboxamide] showed a concentration for half-maximal inhibition (IC50) of 10.2 nM.

Molecule `Cc1cc(N2C[C@H]3C[C@H]3C2=O)ncc1C(C)n1cc(C(=O)N[C@H]2C[C@@H](c3cc(Cl)ccc3C#N)C2)c(C)n1` (single isomer, unassigned) [Example 19, N-((cis)-3-(5-chloro-2-cyanophenyl)cyclobutyl)-3-methyl-1-((R or S)-1-(4-methyl-6-((1R,5S)-2-oxo-3-azabicyclo[3.1.0]hexan-3-yl)pyridin-3-yl)ethyl)-1H-pyrazole-4-carboxamide] had an IC50 of 0.3 nM.

`Cc1cc(N2C[C@H]3C[C@H]3C2=O)ncc1C(C)n1cc(C(=O)N[C@H]2C[C@@H](c3cc(Cl)ccc3C#N)C2)c(C)n1` (single isomer, unassigned) [Example 20, N-((cis)-3-(5-chloro-2-cyanophenyl)cyclobutyl)-3-methyl-1-((S or R)-1-(4-methyl-6-((1R,5S)-2-oxo-3-azabicyclo[3.1.0]hexan-3-yl)pyridin-3-yl)ethyl)-1H-pyrazole-4-carboxamide] displayed a half-maximal inhibitory concentration (IC50) of 2.1 nM.

For `CC(c1cnc(N2C[C@H]3C[C@H]3C2=O)c(F)c1)n1cc(C(=O)N[C@H]2C[C@@H](c3cc(Cl)ccc3C#N)C2)cn1` (single isomer, unassigned) [Example 21, N-((cis)-3-(5-chloro-2-cyanophenyl)cyclobutyl)-1-((R or S)-1-(5-fluoro-6-((1R,5S)-2-oxo-3-azabicyclo[3.1.0]hexan-3-yl)pyridin-3-yl)ethyl)-1H-pyrazole-4-carboxamide], the IC50 worked out at 1.1 nM.

Regarding `CC(c1cnc(N2C[C@H]3C[C@H]3C2=O)c(F)c1)n1cc(C(=O)N[C@H]2C[C@@H](c3cc(Cl)ccc3C#N)C2)cn1` (single isomer, unassigned) [Example 22, N-((cis)-3-(5-chloro-2-cyanophenyl)cyclobutyl)-1-((S or R)-1-(5-fluoro-6-((1R,5S)-2-oxo-3-azabicyclo[3.1.0]hexan-3-yl)pyridin-3-yl)ethyl)-1H-pyrazole-4-carboxamide], it took 1.5 nM to reach half-maximal inhibition (IC50).

In the case of `COc1cc(C(C)n2cc(C(=O)N[C@H]3C[C@@H](c4cc(C)ccc4C#N)C3)cn2)cnc1N1C[C@H]2C[C@H]2C1=O` (single isomer, unassigned) [Example 23, N-((cis)-3-(2-cyano-5-methylphenyl)cyclobutyl)-1-((R or S)-1-(5-methoxy-6-((1R,5S)-2-oxo-3-azabicyclo[3.1.0]hexan-3-yl)pyridin-3-yl)ethyl)-1H-pyrazole-4-carboxamide], the IC50 was found to be 3.9 nM.
